From patent US9456589B2, “Elasmobranch-repelling compounds and methods of use” (priority 2005, dated 2016) come the findings set out here.

The subject of test [1] is juvenile lemon and nurse sharks. Kind of test: Tonic immobility, Micropipette Assay, summary over species. The class given is in vivo. Conditions: juvenile lemon and nurse sharks. On the procedure:
(§1) One bioassay used to observe and measure flight response is the tonic immobility test. Tonic immobility is a state of paralysis that typically occurs when a shark is subject to inversion of its body along the longitudinal axis. This state is called “tonic,” and the shark can remain in this state for up to 15 minutes thereby allowing researchers to observe effects of chemical repellents. The “tonic” state of the shark is first established by releasing seawater in proximity to the “tonic” shark with the same delivery instrument and at the same distance as a “test” repellent compound will be released. Some controls are released with a high flow rate (30 mL/sec) in order to establish that sharks are not awakened by a jet of fluid over their noses. Once behavioral controls are established, a compound or composition that may have a repelling effect is delivered to the shark. If the compound or composition engenders a flight response, the shark will awaken from the tonic state and rapidly attempt to flee the delivered repellent. Using this tonic immobility bioassay researches can quantify the strength of a repellent effect.
A fourth method of delivery was called the “Micropipette Assay” method of delivery. In this method, a very small dose (fraction of a mL) of a test substance was delivered directly into a shark's mouth. […] A response, such as a cough or other notable action of the shark, was usually noted when effective gustatory repellents were delivered directly into a shark's mouth while in tonic immobility.
The Micropipette Assay method has not proven to be a particularly effective method of assaying for a flight response in elasmobranchs. The Micropipette Assay method is, nevertheless, an excellent method for specifying that a gustatory response has occurred. It is effective for specifying a gustatory response because the micropipette delivery method allows direct delivery of an entire bolus of test substance into the mouth of the shark being tested.
An oral dose of no more than 400 microliters was then delivered by micropipette into the mouth of a juvenile nurse shark. Tonic immobility was terminated. For each derivative of butyric acid and each naturally occurring acid listed in Table 9, a first micropipette assay was performed on a juvenile lemon shark with no more than 100 microliters of test acid in an oral dose. A second micropipette assay was then performed on a juvenile nurse shark with no more than 400 microliters of test acid in an oral dose. In each test, tonic immobility was terminated.
In a first set of studies on the effectiveness of carboxylic acids as elasmobranch repellents, each tested substance was subjected to the following protocol. […] An oral dose of no more than 400 microliters was then delivered by micropipette into the mouth of a juvenile nurse shark. Tonic immobility was terminated. […] The data evidences the gustatory repelling activity of carboxylic acids.

Test [2] has as its system sharks (species pooled). Kind of test: Tonic immobility, total of delivery methods not including Micropipette assays. It counts as in vivo. On the procedure:
as §1
Table 1, which summarizes the data in Tables 14 and 15, evidences the gustatory repellent characteristics of methylbutanals. In 35 of 36 assays (combining columns “Y” and “R” under the column labeled “Total (Not including Micropipette Assays)” to arrive at a 97% effectiveness rate), including assays on lemon, nurse, tiger and blacktip sharks, the gustatory repellent activity of 3-methylbutanal was established. In 81% of assays, tonic immobility was fully terminated. […] In only a single assay did a shark not respond to treatment with 3-methylbutanal.

The mark [3] stands for this setting: species and delivery methods pooled.

“And” between values parts separate entries of the source, which are not always exact repeats. Equal entries are not always repeated.

In the case of `CC(C)CC=O` [3-methylbutanal], in test [1], the “Micropipette assays with a behavioral response within tonic immobility” value was “ten”; the “Micropipette assays with a gustatory response (termination or behavior change)” value was 16 of 20 and fifteen; the “Micropipette assays with no response” value is recorded as “five”. Further, the “Micropipette Y (termination of tonic immobility), trials of trials” value in test [1] (oral dose) is recorded as “five”. Also, in test [2] (Hd Syringe, Syringe 3/5/10 and Bite, lemon, nurse, tiger, blacktip), the “assays with termination of tonic immobility or behavior change (Y and R combined), not including Micropipette assays” value is 40 of 41 and 35 of 36. Also, the “effectiveness rate (Y and R combined), not including Micropipette assays” value in test [2] (lemon, nurse, tiger, blacktip) amounted to 97%. Also, in test [2] (setting [3]), the “Total (Not including Micropipette assays / Effective Delivery Methods) N, trials of trials” value is “single and 1/36”; the “Total (Not including Micropipette assays / Effective Delivery Methods) R, trials of trials” value was 6/36; the “Total (Not including Micropipette assays / Effective Delivery Methods) Y, trials of trials” value is 29/36; the “Total N, percent of trials” value is given as “(3%)”.
